Experimental findings from patent EP1614683B1, “Indazole compounds and pharmaceutical compositions for inhibiting protein kinases, and methods for their use” (priority 1999, dated 2001) are described below.

For series [1] the following is noted: vehicle PEG400:H2O pH 2.3 30:70.
The test system of series [2] is lung cancer cells (line MV522). Description: Cancer cell proliferation (MV522) assay. In kind it is cell-based. The following applies: MV522; Table 1; read-out: MV522 IC50. In short, it runs like this: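 MTT reduction read-out was taken 72 h after addition of test agents, with no prior serum starvation. Cells were plated beforehand at two thousand per well in RPMI1640 containing 10% FBS and 2 mM glutamine and allowed one day to adhere.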

Series [3] can be described thus: in vivo. The following applies: mouse, plasma, pH 2.3.
Series [4] has as its target unphosphorylated VEGF-R2Δ50 (Homo sapiens, UniProt P35968, DEL940-989/E990V). Description: biochemical. The following applies: read-out: FLVK ** (% inhibition).
Series [5] has as its target LCK tyrosine kinase (Homo sapiens, UniProt P06239, C224D/P223M). Description: LCK spectrophotometric assay. The class given is biochemical. The following applies: Table 1; compound concentration 1 µM; read-out: Lck-P* (% inhibition). As to the method: The spectrophotometric assay was carried out as described above for VEGF-R2, except for the following changes in concentration: LCK = 60 nM, MgCl2 = 0 mM, poly(E4Y1) = 20 mM.

For series [6], the target named is CDK2/Cyclin A complex (Homo sapiens, UniProt P24941). Description: CDK2/Cyclin A assay ([32P]ATP incorporation into Rb fragment). Conditions: read-out: CDK2 * (% inhibition). The class given is biochemical.
The target in series [7] is T1, human FAK (FAKcd409) (Homo sapiens, UniProt Q05397, P410T).
T1 construct: comprises residues methionine 409 to glutamate 689; made in house; host or cells: baculovirus vector expression system (insect cells)
Kind of series: FAK fluorescence polarization assay. In kind it is biochemical. Conditions: Table 5; 1 µM; read-out: % Inhibition @ 1 µM FAK. How it is done:
FAK Construct for Assay. The catalytic domain of human FAK (FAKcd409) was expressed using the baculovirus vector expression system. […] The protein was purified using classical chromatography techniques.
FAK HTS utilized the fluorescence polarization assay provided by LJL Biosystems. The kinase reaction contained: 100mM Hepes pH 7.5, 10mM MgCl2, 1mM DTT, 1mM ATP, and 1mg/ml poly Glu-Tyr (4: 1). The reaction is initiated by the addition of 5nM FAKcd409. The reaction is terminated by the addition of EDTA followed by addition of fluor-labelled peptide and anti-phosphotyrosine antibody, both provided by LJL Biosystems. Inhibition results are read on a Analyst (LJL) detector.
In general terms: Fluorescence polarisation rises when a labelled molecule tumbles more slowly, as on binding a larger partner.

Series [8] concerns the target human FGF-R1 (Homo sapiens, UniProt P11362, C488A/C584S/L457V). Kind of series: FGF-R spectrophotometric assay. In kind it is biochemical. Conditions: Table 1; compound concentration 1 µM; read-out: FGF-P* (% inhibition). As to the method: The spectrophotometric assay was carried out as described above for VEGF-R2, except for the following changes in concentration: FGF-R = 50 nM, ATP = 2 mM, and poly(E4Y1) =15 mM.

Series [9] concerns VEGF dependent retinal vascular development. Description: In vivo assay of retinal vascular development in neonatal rats. Also on record: species or system rat. Conditions: Model P8, intravitreal, vehicle PEG/water 50:50. In short, it runs like this:
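Neonatal rats given compound by intravitreal injection, vehicle usually 50% PEG 400/50% 300 mM sucrose, with vehicle in contralateral eye. Retinas removed six days later, ADPase-stained and flat-mounted; stained vessel area quantified by imaging and expressed as percent regression versus vehicle eye.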

The target of series [10] is phosphorylated VEGF-R2Δ50 (Homo sapiens, UniProt P35968, DEL940-989/E990V). Kind of series: biochemical. The following applies: read-out: FLVK -P** (% inhibition).
Series [11] deals with VEGF dependent retinal neovascularization. Description: Neonatal rat model of retinopathy of prematurity. In kind it is in vivo. Conditions: Model ROP, intravitreal, 10 mg/ml, vehicle PEG/water 70:30.

Where two headings read alike, the source gives them in different places.

As usually defined, the IC50 is the concentration needed to halve the response being measured. A word on the AUC: it is concentration integrated over time. Read a high AUC as more exposure. By inhibition is commonly meant the drop in the measured response relative to a control, in per cent. One may read the % Inhibition as the percentage by which the read-out fell short of the control.

T1 sequence (Q05397 409-689 P410T): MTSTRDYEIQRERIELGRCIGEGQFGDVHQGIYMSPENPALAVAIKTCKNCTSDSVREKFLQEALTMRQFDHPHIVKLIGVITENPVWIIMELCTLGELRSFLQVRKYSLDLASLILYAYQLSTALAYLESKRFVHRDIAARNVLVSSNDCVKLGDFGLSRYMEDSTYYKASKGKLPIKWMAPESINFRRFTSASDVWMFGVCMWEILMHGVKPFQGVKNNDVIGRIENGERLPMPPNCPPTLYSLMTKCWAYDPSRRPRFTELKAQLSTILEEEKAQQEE
Chain of human FGF-R1 (P11362 456-766 L457V/C488A/C584S): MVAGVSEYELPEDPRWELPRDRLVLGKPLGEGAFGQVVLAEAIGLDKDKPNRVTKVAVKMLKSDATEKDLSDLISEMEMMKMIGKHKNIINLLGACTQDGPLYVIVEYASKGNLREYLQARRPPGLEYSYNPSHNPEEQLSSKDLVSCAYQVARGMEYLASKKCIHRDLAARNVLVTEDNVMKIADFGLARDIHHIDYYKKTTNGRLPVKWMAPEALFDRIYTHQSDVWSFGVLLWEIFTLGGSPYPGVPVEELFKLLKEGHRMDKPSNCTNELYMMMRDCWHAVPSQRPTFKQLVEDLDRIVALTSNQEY
Chain of unphosphorylated VEGF-R2Δ50 (P35968 with tags, fused parts or gaps DEL940-989/E990V limits assumed): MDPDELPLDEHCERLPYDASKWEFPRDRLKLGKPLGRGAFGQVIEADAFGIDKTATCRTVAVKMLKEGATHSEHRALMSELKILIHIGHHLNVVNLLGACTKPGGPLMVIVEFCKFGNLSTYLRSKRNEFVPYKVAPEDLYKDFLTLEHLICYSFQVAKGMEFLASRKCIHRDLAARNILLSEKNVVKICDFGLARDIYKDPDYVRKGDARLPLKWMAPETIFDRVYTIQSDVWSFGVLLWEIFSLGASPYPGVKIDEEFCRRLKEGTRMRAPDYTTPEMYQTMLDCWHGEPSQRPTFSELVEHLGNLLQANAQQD
Chain of LCK tyrosine kinase (P06239 223-509 P223M/C224D): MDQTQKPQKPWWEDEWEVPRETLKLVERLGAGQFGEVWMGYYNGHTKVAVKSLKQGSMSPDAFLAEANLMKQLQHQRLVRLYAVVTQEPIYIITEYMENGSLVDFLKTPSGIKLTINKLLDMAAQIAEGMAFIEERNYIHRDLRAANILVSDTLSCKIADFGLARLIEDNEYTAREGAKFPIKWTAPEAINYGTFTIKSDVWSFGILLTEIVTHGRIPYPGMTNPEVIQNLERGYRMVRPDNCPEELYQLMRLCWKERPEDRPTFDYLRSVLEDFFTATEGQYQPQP
Chain of phosphorylated VEGF-R2Δ50 (P35968 with tags, fused parts or gaps DEL940-989/E990V limits assumed): as the sequence (P35968 with tags, fused parts or gaps DEL940-989/E990V limits assumed) above

As to `CCn1nc(C)cc1C(=O)Nc1cccc(Oc2ccc3c(/C=C/c4ccccn4)n[nH]c3c2)c1` [Reference Example 31(d), 6-[3-((1-Ethyl-3-methyl-1H-pyrazol-5-yl)carboxamido)phenoxy]-3-E-[2-(pridin-2-yl)ethenyl]-1H-indazole], the T1/2 in series [1] (IP, 25 mg/kg) amounted to 5.3 h; in series [1] (PO, 10 mg/kg) it was 3.1 h; in [1] (PO, 25 mg/kg) it was 1.9 h; in series [1] (PO, 50 mg/kg) it was 39.3 h. Also, the IC50 in series [2] was found to be 5.2 µM. Moreover, the AUC in series [3] (ip, 25 mg/kg) was 238 µg·h/mL; in series [3] (po, 10 mg/kg) it was 49.1 µg·h/mL; in series [3] (po, 25 mg/kg), 204 µg·h/mL; in [3] (po, 50 mg/kg) it was 431 µg·h/mL. The inhibition at 0.05 µM in series [4] was 96%. In addition, the values for the inhibition at 1 µM in series [5], in [6] and in series [7] were 52%, 5% and 6%, respectively.
Regarding `C#CCNC(=O)c1ccccc1Sc1ccc2c(/C=C/c3ccccn3)n[nH]c2c1` [Reference Example 35(cc), 6-[2-(2-Propynylcarbamoyl)phenylsulfany]-3-E-[2-(pyridin-2-yl)ethenyl]-1H-indazole], in series [4], the inhibition at 0.05 µM is 89%. The inhibition at 1 µM worked out at 15% in series [5], 74% in series [8], 5% in [6] and 7% in series [7].
With `CCONC(=O)c1ccccc1Sc1ccc2c(/C=C/c3ccccn3)n[nH]c2c1` [Reference Example 35(dd), 6-[2-(ethoxycarbamoyl)phenylsufanyl]-3-E-[2-(pyridin-2-yl)ethenyl]-1H-indazole], the “Initial Evaluation” value in series [9] (5 mg/ml) is “++/+++ var”. The inhibition at 1 µM in series [5] was 17%; in [6], 7%; in series [7] it was 4%.
On to `CC(C)ONC(=O)c1ccccc1Sc1ccc2c(/C=C/c3ccccn3)n[nH]c2c1` [Reference Example 35(k)], for which the inhibition at 0.05 µM in series [4] was found to be 85%. The inhibition at 1 µM in series [5] was determined as 6%; in series [8], 34%; in series [6] it was 8%; in [7], 7%.
On to `O=C(NNc1ccccn1)c1ccccc1Sc1ccc2c(/C=C/c3ccccn3)n[nH]c2c1` [Reference Example 35(n), 6-[2-(N^2-(pyrid-2-ylhydrazino)carbonyl)phenylsulfanyl]-3-E-[2-(pyridin-2-yl)ethenyl]-1H-indazole], for which the IC50 in series [2] is 5.1 µM. For the same compound, the inhibition at 1 µM in [5] came to 58%; in series [6], 4%; in series [7] it was 1%.
Take `CCn1nc(C)cc1C(=O)Nc1cccc(C(=O)c2ccc3c(/C=C/c4ccccn4)n[nH]c3c2)c1` [Reference Example 41(a), 6-[3-((1-Ethyl-3-methyl-1H-pyrazol-5-yl)carboxamido)benzoyl]. 3-E-[2-(pyridin-2-yl)ethenyl]-1H-indazole]: the “% Inhibition” value is 0% in [9] (0.5 mg/ml) and 64% in series [11]. In addition, in series [10], the inhibition at 0.05 µM was 94%. In addition, the values for the inhibition at 1 µM in [5], in series [6] and in series [7] were 50%, 0% and 5%, respectively. Besides, the “Initial Evaluation” value in series [11] is given as “+++ (three pluses give to retinas with near total regression (approximately 75% or greater))”.
For the compound `CCn1nc(C)cc1C(=O)Nc1cc(C(=O)c2ccc3c(/C=C/c4ccccn4)n[nH]c3c2)ccc1C` [Reference Example 41(ee), 6-[3-((1-Ethyl-3-methyl-1H-pyrazol-5-yl)carboxamido)-4-methylbenzoyl]-3-E-[2-(pyridin-2-yl)ethenyl]-1H-indazole], in [2], the IC50 came out at 9.4 µM. For the same compound, the inhibition at 1 µM in [5] came to 13%; in [8] it was 94%; in [6] it was 0%; in series [7], 7%.
As to `CCCn1nc(C)cc1C(=O)Nc1cccc(C(=O)c2ccc3c(/C=C/c4ccccn4)n[nH]c3c2)c1` [Reference Example 41(r)], the inhibition at 0.05 µM in series [4] was 100%. In addition, the inhibition at 1 µM in [5] stood at 55%; in [8], 92%; in series [6], 0%; in series [7], 5%.
